Structures are written as SMILES. Structures can show the parent of a compound that is named as a salt.

The first test concerns male C57BL/6 mice. The test is described as follows: 55° C. warm-water tail-flick test (antinociception). Type of test: in vivo. To be noted: Mus musculus, sc, 0.5 h, compounds of Table I; s.c.; 30 min; 55° C. water; configuration tested as in Table II; read-out: ED50 (mg/kg) at 30 min on C57BL/6 mice in Warm-water Tail-flick Test. As to the method:
Antinociception was assessed using the 55° C. warm-water tail-flick test. The latency to the first sign of a rapid tail flick was taken as the behavioral endpoint. Each mouse was first tested for baseline latency by immersing its tail in the water and recording the time to response. Mice not responding within 2 secs were excluded from further testing. Responsive mice were then s.c. administered the test compound and tested for antinociception at 30 min, 60 min, 90 min, and 120 min time points afterward. Antinociception was calculated using the following formula: percentage of antinociception=100×(test latency−control latency)/(20−control latency).
The following new compounds were also made and tested to determine the half maximal possible effective dose, or ED50 (mg/kg), in mice, using one of: the warm water tail-flick test as in Table II, spared nerve injury, chronic constriction injury, or Complete Freund's adjuvant induced inflammatory pain. The symbols in the last column are: + indicates ED 50>50 mg/kg; ++ indicates ED 50 is less than or equal to 30 mg/kg.
Background: Hot-plate and tail-flick tests time the reaction to a heat stimulus.
Regarding `CCOCC1(CCn2cnc3cnccc32)CCN(C(C)(C)c2ccc(C)nc2)C1` (stereo not drawn) [Compound 91, 1-(2-(3-(ethoxymethyl)-1-(2-(6-methylpyridin-3-yl)propan-2-yl)pyrrolidin-3-yl)ethyl)-1H-imidazo[4,5-c]pyridine citrate], the ED50 is not above 30 mg/kg.

Consider `CCOCC1(CCn2c(=O)[nH]c3cnccc32)CCN(C(C)(C)c2ccc(C)nc2)C1` (stereo not drawn) [Compound 92, 1-(2-(3-(ethoxymethyl)-1-(2-(6-methylpyridin-3-yl)propan-2-yl)pyrrolidin-3-yl)ethyl)-1,3-dihydro-2H-imidazo[4,5-c]pyridin-2-one citrate], for which the ED50 was not above 30 mg/kg.

With `Cc1ccc(C(C)(C)N2CCC(CCc3ccc(F)s3)(CNC(=O)NC(C)C)C2)cn1` (single isomer, unassigned) [Compound 42], the ED50 is not above 30 mg/kg.

Still in this test, the particulars now being: Mus musculus; half maximal effective dose in mice; using one of: warm water tail-flick test, spared nerve injury, chronic constriction injury, or Complete Freund's adjuvant induced inflammatory pain (not stated which per compound); read-out: Biological Activity (ED50).
For the molecule `CC(C)(c1ccccn1)N1CC[C@@](CCc2ccc(C#N)cc2)(C(O)(C(F)(F)F)C(F)(F)F)C1` [Compound 119, (R)-4-(2-(3-(1,1,1,3,3,3-hexafluoro-2-hydroxypropan-2-yl)-1-(2-(pyridin-2-yl)propan-2-yl)pyrrolidin-3-yl)ethyl) benzonitrile], the ED50 is more than 50 mg/kg.

`CC(C)(c1ccccn1)N1CC[C@](CO)(CCc2ccccc2C#N)C1` [Compound 129, (R)-2-(2-(3-(hydroxymethyl)-1-(2-(pyridin-2-yl)propan-2-yl)pyrrolidin-3-yl)ethyl) benzonitrile]: the ED50 is more than 50 mg/kg.

Regarding `CC(C)(c1ccccn1)N1CC[C@@](/C=C/c2ccc(C(F)(F)F)o2)(COCc2ccccc2)C1` [Compound 188, (S,E)-2-(2-(3-((benzyloxy)methyl)-3-(2-(5-(trifluoromethyl)furan-2-yl)vinyl)pyrrolidin-1-yl)propan-2-yl)pyridine], the ED50 is more than 50 mg/kg.

Regarding `CCOC(C(F)(F)F)(C(F)(F)F)[C@]1(CCc2ccc(C#N)cc2)CCN(C(C)(C)c2ccccn2)C1` [Compound 137, (R)-4-(2-(3-(2-ethoxy-1,1,1,3,3,3-hexafluoropropan-2-yl)-1-(2-(pyridin-2-yl)propan-2-yl)pyrrolidin-3-yl)ethyl) benzonitrile], the ED50 is more than 50 mg/kg.

Take `CC(C)(c1ccccn1)N1CC[C@@](CCc2ccc(S(C)(=O)=O)cc2)(C2CCCO2)C1` (single isomer, unassigned) [Compound 67]: the ED50 is more than 50 mg/kg.

For the molecule `N#Cc1ccc(CC[C@@]2(C3OCC3(F)F)CCN(Cc3cccnc3)C2)cc1` (single isomer, unassigned) [Compound 197, 4-(2-((R)-3-((R or S)-3,3-difluorooxetan-2-yl)-1-(pyridin-3-ylmethyl)pyrrolidin-3-yl)ethyl) benzonitrile], the ED50 is not above 30 mg/kg.

Take `CC(C)(c1ccc(Cl)cc1)N1CC[C@@](CCc2ccc(S(C)(=O)=O)cc2)(C(O)C(F)(F)F)C1` (single isomer, unassigned) [Compound 222, (R or S)-1-((R)-1-(2-(4-chlorophenyl)propan-2-yl)-3-(4-(methylsulfonyl)phenethyl)pyrrolidin-3-yl)-2,2,2-trifluoroethan-1-ol]: the ED50 is more than 50 mg/kg.

Take `CC(C)(c1ccccn1)N1CC[C@@](CCc2ccc(C#N)cc2)(C(=O)NC2(C(F)(F)F)COC2)C1` [Compound 206, (R)-3-(4-cyanophenethyl)-1-(2-(pyridin-2-yl)propan-2-yl)-N-(3-(trifluoromethyl)oxetan-3-yl)pyrrolidine-3-carboxamide]: the ED50 is not above 30 mg/kg.

Regarding `Cc1ccc(CN2CC[C@@](CCc3ccc(C#N)cc3)(C3OCC3(C)C)C2)cn1` (single isomer, unassigned) [Compound 194, 4-(2-((R)-3-((R or S)-3,3-dimethyloxetan-2-yl)-1-((6-methylpyridin-3-yl)methyl)pyrrolidin-3-yl)ethyl) benzonitrile], the ED50 is not above 30 mg/kg.

As to `CC(C)(c1ccc(Cl)cc1)N1CC[C@](CCc2ccc(S(C)(=O)=O)cc2)(C(O)C(F)(F)F)C1` (single isomer, unassigned) [Compound 98, (R or S)-1-((S)-1-(2-(4-chlorophenyl)propan-2-yl)-3-(4-(methylsulfonyl)phenethyl)pyrrolidin-3-yl)-2,2,2-trifluoroethan-1-ol], the ED50 was not above 30 mg/kg.

`CC(C)(c1ccccn1)N1CC[C@](CO)(CCc2ccc(C#N)s2)C1` [Compound 147, (R)-5-(2-(3-(hydroxymethyl)-1-(2-(pyridin-2-yl)propan-2-yl)pyrrolidin-3-yl)ethyl)thiophene-2-carbonitrile]: the ED50 was more than 50 mg/kg.

With `CCOC[C@]1(CCc2ccc(F)cc2)CCN(Cc2cnc(OC)cc2C#N)C1` [Compound 2, (R)-5-((3-(ethoxymethyl)-3-(4-fluorophenethyl)pyrrolidin-1-yl)methyl)-2-methoxy-isonicotino nitrile], the ED50 is not above 30 mg/kg.

Take `CCOC(c1ccccc1)[C@]1(CCc2ccc(C#N)cc2)CCN(C(C)(C)c2ccccc2)C1` (single isomer, unassigned) [Compound 31, 4-(2-((R)-3-((R or S)-ethoxy(phenyl)methyl)-1-(2-phenylpropan-2-yl)pyrrolidin-3-yl)ethyl)benzonitrile]: the ED50 was more than 50 mg/kg.

For the molecule `CC(C)(c1ccccn1)N1CC[C@@](CCc2ccc(C#N)c(F)c2)(COCc2ccccc2)C1` [Compound 112, (R)-4-(2-(3-((benzyloxy)methyl)-1-(2-(pyridin-2-yl)propan-2-yl)pyrrolidin-3-yl)ethyl)-2-fluorobenzonitrile], the ED50 is more than 50 mg/kg.

Regarding `CC(C)(c1ccccn1)N1CC[C@@](CCc2ccc(C#N)cc2)(C(=O)C(F)(F)F)C1` [Compound 100, (R)-4-(2-(1-(2-(pyridin-2-yl)propan-2-yl)-3-(2,2,2-trifluoroacetyl)pyrrolidin-3-yl)ethyl) benzonitrile], the ED50 is more than 50 mg/kg.

As to `CC(C)(c1ccccn1)N1CC[C@@](CCc2ccc3ccoc3c2)(C(N)=O)C1` [Compound 174, (R)-3-(2-(benzofuran-6-yl)ethyl)-1-(2-(pyridin-2-yl)propan-2-yl)pyrrolidine-3-carboxamide], the ED50 was not above 30 mg/kg.

Consider `COc1cccc(C(C)(C)N2CC[C@](CO)(CCc3ccc(C#N)cc3)C2)n1` [Compound 157, (R)-4-(2-(3-(hydroxymethyl)-1-(2-(6-methoxypyridin-2-yl)propan-2-yl)pyrrolidin-3-yl)ethyl) benzonitrile], for which the ED50 was not above 30 mg/kg.

For the molecule `CCOC[C@]1(CCc2ccc(S(C)(=O)=O)cc2)CCN(C(C)(C)c2ccc(Cl)cc2)C1` [Compound 221, (R)-1-(2-(4-chlorophenyl)propan-2-yl)-3-(ethoxymethyl)-3-(4-(methylsulfonyl)phenethyl) pyrrolidine], the ED50 was more than 50 mg/kg.

`COC[C@@]1(CCc2ccc(S(C)(=O)=O)cc2)CCN(C(C)(C)c2ccc(Cl)cc2)C1` [Compound 43]: the ED50 was more than 50 mg/kg.

Regarding `CCOC(=O)[C@]1(CCc2ccc(C#N)cc2)CCN(C(C)(C)c2ccccn2)C1` [Compound 139, ethyl (R)-3-(4-cyanophenethyl)-1-(2-(pyridin-2-yl)propan-2-yl)pyrrolidine-3-carboxylate], the ED50 was more than 50 mg/kg.

Staying with this test, now noted: half maximal effective dose in mice; using one of: warm water tail-flick test, spared nerve injury, chronic constriction injury, or Complete Freund's adjuvant induced inflammatory pain (not stated which per compound).
For `CC(C)(c1ccccn1)N1CC[C@@](CCc2ccc(F)c(F)c2)(C(O)C(F)(F)F)C1` (single isomer, unassigned) [Compound 151, (R or S)-1-((R)-3-(3,4-difluorophenethyl)-1-(2-(pyridin-2-yl)propan-2-yl)pyrrolidin-3-yl)-2,2,2-trifluoroethan-1-ol], the “Biological Activity (ED50)” value is listed as “+ (+ indicates ED 50>50 mg/kg)”.

These data come from US20240383882A1 (Ecstasy LLC, priority 2020, published 2024).
